One molecule from article PMC12118597 (Science Advances, 2025) can be followed below.

The target in test [1] is T1, SARS-CoV-2 NSP3 macrodomain (Mac1) (Severe acute respiratory syndrome coronavirus 2, UniProt P0DTD1). Briefly: biochemical. Conditions: SARS CoV-2 macrodomain HTRF assay. The test is classed as binding.
The target in test [2] is T1, SARS-CoV-2 NSP3 macrodomain (Mac1). The class given is binding. As to conditions: stereoisomer(s)/conformations of the soaked ligand modeled in the Mac1 crystal structure.

As usually defined, the Ki is the dissociation constant of the complex between target and ligand, obtained from inhibition or displacement. As usually defined, the IC50 is the midpoint of a concentration-inhibition curve.

Turning to `OC1CCC(O)(CNc2ncnc3[nH]ccc23)CC1` (stereo not shown) [AVI-6220], in test [1], the Ki worked out at 240 µM and the “Ligand efficiency (binding enery per heavy atom)” value amounted to 0.26. For the same molecule, the IC50 in test [1] (dose-response, read-out: IC50) turned out to be 260 µM. Moreover, the Isomers modeled result in test [2] is “rr,rr”.
